Laboratory results as given in patent US5177240A, “o-Phosphono(alkyl)-N-sulfonyl-phenyl-alanine derivatives useful as intermediates for preparation of phosphono-hydroisoquinolines” (G. D. Searle & Co., priority 1990, dated 1993).

How the values were obtained:
[1] = target: NMDA receptor; test: NMDA receptor binding assay (NMDA-specific L-[3H]-glutamate binding, synaptic plasma membranes); details: 12.5 nM L-[3H]-glutamate, pH 7.4, 0-4° C., 10 min
Description: Synaptic plasma membranes (SPM) were prepared as previously described Monahan, J. B. and Michel, J., "Identification and Characterization of an N-methyl-D-aspartate-specific L-[^3 H]-glutamate Recognition Site in Synaptic Plasma Membranes, J. Neurochem., 48, 1699-1708 (1987)]. The SPM were stored at a concentration of 10-15 mg/ml in 0.32M sucrose, 0.5 mM EDTA, 1 mM MgSO4, 5 mM Tris/sulfate, pH 7.4, under liquid nitrogen. The identity and purity of the subcellular fractions were confirmed by both electron microscopy and marker enzymes. Protein concentrations were determined by using a modification of the method of Lowry [Ohnishi, S. T. and Barr, J. K., "A Simplified Method of Quantitating Proteins Using the Biuret and Phenol Reagents", Anal. Biochem., 86, 193-197 (1978)]. The SPM were treated identically for the [^3 H]AMPA (QUIS), [^3 H]kainate and sodium-dependent L-[^3 H]-glumatate binding assays. The SPM were thawed at room temperature, diluted twenty-fold with 50 mM Tris/acetate, pH 7.4, incubated at 37° C. for 30 minutes, and centrifuged at 100,000 g for 15 minutes. The dilution, incubation and centrifugation were repeated a total of three times. Prior to use in the NMDA-specific L-[^3 H]-glutamate binding assay, the SPM were thawed, diluted twenty fold with 50 mM Tris/acetate (pH 7.4 containing 0.04% (v/v) Triton X-100), incubated for 30 minutes at 37° C. and centrifuged as described above. The Triton X-100 treated membranes were washed with 50 mM Tris/acetate (pH 7.4) and centrifuged at 100,000 g for 15 minutes a total of four times. The basic procedure for the receptor subclass binding assays was similar. This general method involved adding the radioligand (12.5 nM L-[^3 H]-glutamate; 0.5 nM [^3 H]kainate or 10nM [^3 H]AMPA) to the appropriate concentration of the test compound and initiating the assay by the addition of ice cold synaptic plasma membranes (0.2-0.45 mg). The binding assays were performed in 1.5 mL centrifuge tubes with the total volume adjusted to 1.0 mL. Additions of test compounds were made in 50 mM Tris/acetate (pH 7.4) and incubations were carried out at 0°-4° C. The incubation time for each of the NMDA and the AMPA binding assays was 10 minutes, for the kainate binding assay 60 minutes and for the sodium-dependent glutamate binding assay 15 minutes. The AMPA binding assay contained 100 mM KSCN and the sodium-dependent glutamate binding assay contained 150 mM sodium acetate in addition to the previously described reagents. To terminate the incubation, the samples were centrifuged for 15 minutes at 12,000 g and 4° C. in a Beckman Microfuge 12. The supernatant was aspirated and the pelleted membranes dissolved in Beckman BTS-450 tissue solubilizer for a minimum of 6 hours at room temperature. Beckman MP scintillation cocktail containing 7 mL/L acetic acid was then added and the samples counted on a Beckman LS 5800 or 3801 liquid scintillation counter with automatic corrections for quenching and counting efficiency. Nonspecific binding was defined as the residual binding in the presence of either excess L-glutamate (0.1-0.4 mM), kainate (0.01 mM), or NMDA (0.5 mM), and was 15-25% of the total binding in the NMDA binding assay, 19-27% in the AMPA binding assay, 20-30% in the kainate binding assay and 10-15% in the sodium-dependent binding assay. Radioligand binding to the synaptic plasma membranes was analyzed using Scatchard and Hill transformations and the Ki values of the compounds determined using logit-log transformations. Calculations and regression analysis were performed using templates developed for Lotus 1, 2, 3 as previously described [Pullan, L. M. "Automated Radioligand Receptor Binding Analysis with Templates for Lotus", Computer Appln. Biosci., 3 131 (1987)]. Binding results are reported in Table II for example compounds of the invention. Included in Table II are binding data for D,L-AP7[D,L-2-amino-7-phosphonoheptanoic acid].

[2] = system: [3H]glycine binding; test: Glycine Binding Assay ([3H]glycine, synaptic plasma membranes from rat forebrain); details: 10 nM [3H]glycine, pH 7.4
Description: Synaptic plasma membranes (SPM) were prepared from rat forebrain and stored as previously described [J. B. Monahan and J. Michel, J. Neurochem., 48, 1699-1708 (1987)]. Frozen membranes were thawed and diluted 1:20 with 0.04% Triton X-100 in 50 mM Tris/acetate (pH 7.4). Following incubation at 37° C. for 30 min., the SPM were collected by centrifugation at 95,000×g for 15 min. The pellet was resuspended in 50 mM Tris/acetate (pH 7.4, Triton-free) and hand-homogenized five times. The membranes were again centrifuged as above. The pellet was washed two additional times with 50 mM Tris/acetate (without homogenization) and centrifuged. The final pellet was resuspended with homogenization in 50 mM Tris/acetate. In the general receptor binding assay procedure, 10 nM [^3 H]glycine was added to the appropriate concentration of the test compounds and the assay initiated by the addition of 0.2-0.4 mg of ice cold SPM. […] Beckman MP scintillation cocktail (5 ml) containing 7 ml/liter acetic acid was then added and the samples counted on a Beckman LS 5800 liquid scintillation counter with automatic corrections for quenching and counting efficiency. […] The binding of [^3 H]glycine to the SPM was analyzed using Scatchard and Hill transformations and the Ki for other compounds was determined using logit-log analysis. […]

[3] = target: [3H]MK-801 receptor; test: MK-801 Modulation Assay ([3H]MK-801 binding, synaptic plasma membranes from rat forebrain); details: 2.0 nM [3H]MK-801, pH 7.4, 120 min, 25° C.; decrease in specific basal binding; read-out: IC50, inhibition of [3H]MK-801 binding
Description: [^3 H]MK-801 binding was performed using Triton X-100 washed synaptic plasma membranes (SPM) prepared from rat forebrain (30-45 day old, male Sprague-Dawley; Sasco, St. Charles, MO) as described previously [J. W. Thomas, W. F. Hood, J. B. Monahan, P. C. Contreras and T. L. O'Donohue, Brain Res., 442, 396-398 (1988)]. The assay was initiated by the addition of SPM (0.20-0.30 mg) to an incubation containing 2.0 nM [^3 H]MK-801 (15 Ci/mmole; New England Nuclear, Boston, MA) and various concentrations of the appropriate test compound in a total volume of 0.5 ml (all additions were made in 50mM Tris/acetate buffer, pH 7.4) and continued for 120 min at 25° C. The samples were then filtered through glass fiber filters (Schleicher and Schuell #32) which were pretreated with 0.05% (v/v) polyethylenimine. The filters were washed and the radioactivity quantitated by liquid scintillation spectrometry. Inhibition of [^3 H]MK-801 binding was measured as a decrease in specific basal binding (basal binding=2583 ±381 DPM) with nonspecific binding as the residual binding in the presence of 60 μM MK-801 (562 ±30 DPM).

[4] = target: KA (kainate) receptor; test: Kainate (KA) receptor binding assay ([3H]kainate, synaptic plasma membranes); details: 0.5 nM [3H]kainate, pH 7.4, 0-4° C., 60 min
Description: (§1) Synaptic plasma membranes (SPM) were prepared as previously described Monahan, J. B. and Michel, J., "Identification and Characterization of an N-methyl-D-aspartate-specific L-[^3 H]-glutamate Recognition Site in Synaptic Plasma Membranes, J. Neurochem., 48, 1699-1708 (1987)]. The SPM were stored at a concentration of 10-15 mg/ml in 0.32M sucrose, 0.5 mM EDTA, 1 mM MgSO4, 5 mM Tris/sulfate, pH 7.4, under liquid nitrogen. The identity and purity of the subcellular fractions were confirmed by both electron microscopy and marker enzymes. Protein concentrations were determined by using a modification of the method of Lowry [Ohnishi, S. T. and Barr, J. K., "A Simplified Method of Quantitating Proteins Using the Biuret and Phenol Reagents", Anal. Biochem., 86, 193-197 (1978)]. The SPM were treated identically for the [^3 H]AMPA (QUIS), [^3 H]kainate and sodium-dependent L-[^3 H]-glumatate binding assays. […] Beckman MP scintillation cocktail containing 7 mL/L acetic acid was then added and the samples counted on a Beckman LS 5800 or 3801 liquid scintillation counter with automatic corrections for quenching and counting efficiency. […] Radioligand binding to the synaptic plasma membranes was analyzed using Scatchard and Hill transformations and the Ki values of the compounds determined using logit-log transformations. […]

[5] = target: Quis (quisqualate) receptor; test: Quisqualate (QUIS) receptor binding assay ([3H]AMPA, synaptic plasma membranes); details: 10 nM [3H]AMPA, 100 mM KSCN, pH 7.4, 0-4° C., 10 min; read-out: NMDA receptor binding Ki, Quis
Description: as §1, with “assays. The SPM were thawed at room temperature, diluted twenty-fold with 50 mM Tris/acetate, pH 7.4, incubated at 37° C. for 30 minutes, and centrifuged at 100,000 g for 15 minutes. The dilution, incubation and centrifugation were repeated a total of three times. Prior to use in the NMDA-specific L-[^3 H]-glutamate binding assay, the SPM were thawed, diluted twenty fold with 50 mM Tris/acetate (pH 7.4 containing 0.04% (v/v) Triton X-100), incubated for 30 minutes at 37° C. and centrifuged as described above. The Triton X-100 treated membranes were washed with 50 mM Tris/acetate (pH 7.4) and centrifuged at 100,000 g for 15 minutes a total of four times. The basic procedure for the receptor subclass binding assays was similar.” for “assays.”

[6] = system: TCP (1-[1-(2-thienyl)-cyclohexyl]piperidine) binding; test: TCP Modulation Assay ([3H]TCP binding, rat brain synaptic membranes); details: 2 nM tritiated TCP, 0.05 mM L-glutamate, pH 7.4, 25° C., 60 min
Description: The effect on the TCP (1-[1-(2-thienyl)-cyclohexyl]piperidine) binding was measured in rat brain synaptic membranes (SPM) prepared as previously described [J. B. Monahan & J. Michel; J. Neurochem. 48:1699-1708 (1987)]. Prior to their use in the binding assay, frozen SPM were thawed, diluted twenty fold with 50 mM Tris/acetate (pH 7.4 containing 0.04% (v/v) Triton X-100), incubated for 30 min. at 37° C. and centrifuged at 95,000×g for 15 min. The Triton X-100 treated SPM were washed with 5 mM Tris/HCl, pH 7.4 and centrifuged a total of six times. The compound of Example II was incubated at different concentrations with SPM (0.2-0.4 mg protein) and 2 nM tritiated TCP, in a total volume of 0.5 ml of 5 mM Tris/HCl buffer pH 7.4 at 25° C. for 60 min. The samples were filtered through glass fiber filters (Schleicher & Schuell #32) which have been pretreated with 0.05% (v/v) polyethylenimine, washed 4 times with 2 ml of ice-cold 5 mM Tris/HCl buffer, and then counted on a Beckman LS 5800 liquid scintillation counter with automatic corrections for quenching and counting efficiency. Inhibition of TCP binding was measured as a decrease in the binding in the presence of 0.05 mM L-glutamate. Non-specific binding was defined as the residual binding in the presence of 60 […].

In the case of `O=C(O)C1Cc2c(cccc2P(=O)(O)O)CN1` (single isomer, unassigned; (+)) [Ex. 13, (+)-3-carboxy-5-phosphono-1,2,3,4-tetrahydroisoquinoline], the Ki [1] is reported as 900 nM.
`O=C(O)C1CC2C(CCCC2P(=O)(O)O)CN1` (centres unmarked) [Ex. 6] was tested, and the Ki [1] was 11200 nM.
For `Cl.O=C(O)C1Cc2c(cccc2P(=O)(O)O)CN1` (centres unmarked) [Ex. 2, 3-carboxy-5-phosphono-1,2,3,4-tetrahydroisoquinoline hydrochloride], the “maximum inhibition of [3H]-glycine binding” value [2] was “approximately 40%”, the IC20 ([2]; calculated, based on maximum inhibition of approximately 40%) was 1900 nM and the IC50 [3] was 480 nM. For the same molecule, the “Kainate receptor binding Ki” value [4] was ~ 300 μM, the Ki [1] was 1600 nM and the Ki [5] was greater than 300000 nM. For the same molecule, the “inhibition of TCP binding” value ([6]; at 5 μM) was 64% and the “inhibition of TCP binding” value ([6]; at 50 μM) was 91%.
With `O=C(O)C1CC2=C(CC=CC2P(=O)(O)O)CN1` (centres unmarked) [Ex. 3, 3-carboxy-5-phosphono-1,2,3,4,5,8-hexahydroisoquinoline] the Ki [1] was 3000 nM.
`Cc1ccc2c(c1P(=O)(O)O)CC(C(=O)O)NC2` (centres unmarked) [Ex. 16] showed a Ki [1] of 5900 nM.
Molecule `O=C(O)C1CC2C(CCCC2P(=O)(O)O)CN1` (centres unmarked) [Ex. 7] has a Ki [1] of 1300 nM.
In the case of `O=C(O)C1CC2C(CCCC2P(=O)(O)O)CN1` (centres unmarked) [Ex. 5], the IC50 [3] is reported as 1380 nM and the Ki [1] is reported as 1600 nM.
For `O=C(O)C1Cc2c(cccc2CP(=O)(O)O)CN1` (centres unmarked) [Ex. 17, 3-carboxy-5-(phosphonomethyl)-1,2,3,4-tetrahydroisoquinoline], the Ki [1] was 18000 nM.
`O=C(O)C1CC2=C(CCCC2P(=O)(O)O)CN1` (centres unmarked) [Ex. 4, 3-carboxy-5-phosphono-1,2,3,4,5,6,7,8-octahydroisoquinoline] showed a Ki [1] of 1200 nM.
`CCOC(=O)C1Cc2c(cccc2P(=O)(O)O)CN1` (centres unmarked) [Ex. 15, 5-phosphono-3-(ethoxycarbonyl)-1,2,3,4-tetrahydroisoquinoline] showed a Ki [1] greater than 100000 nM.
`NC(CCCCCP(=O)(O)O)C(=O)O` (racemic) [D,L-AP7, D,L-2-amino-7-phosphonoheptanoic acid] showed a Ki [1] of 5400 nM and a Ki [5] greater than 300000 nM.
In the case of `O=C(O)C1Cc2c(cccc2P(=O)(O)O)CN1` (single isomer, unassigned) [Ex. 14], the Ki [1] is reported as 3100 nM.
`N[C@H](CCCCCP(=O)(O)O)C(=O)O` [D-AP7] was tested, and the Ki [1] was 4000 nM and the Ki [5] was greater than 300000 nM.
